Six compounds from the NIST ThermoML archive (doi:10.1021/je049610v) can be followed below.

As usually defined, the mass density is the mass of a sample divided by its volume. The speed of sound is how fast a sound wave travels through the sample. The term viscosity denotes the internal friction of a fluid under shear. As usually defined, the refractive index is the speed of light in vacuum divided by its phase velocity in the sample.

“And” between values parts separate entries of the source, which are not always exact repeats. Equal values may be shown once. ± gives the expanded uncertainty stated by the source.

The conditions of data set [1]: 101 kPa, Liquid.
Data set [2] can be described thus: refractive index (Na D-line) (dimensionless). The note with it: 101.33 kPa, Liquid.

`COc1ccccc1` [anisole]: the mass density in data set [1] (298.15 K) worked out at 988.9 ± 2 kg/m3; in data set [1] (303.15 K), 984.1 ± 2.1 kg/m3; in data set [1] (308.15 K) it was 979.4 ± 2.1 kg/m3. For the same compound, in data set [1] (298.15 K), the speed of sound was determined as 1410 ± 8 m/s. Further, the viscosity in data set [1] (298.15 K) was 0.992 ± 0.032 mPa·s; in data set [1] (303.15 K), 0.919 ± 0.03 mPa·s and 0.918 ± 0.03 mPa·s; in data set [1] (308.15 K), 0.853 ± 0.028 mPa·s. The refractive index turned out to be 1.5148 ± 0.0024 in data set [2] (298.15 K), 1.5124 ± 0.0024 in data set [2] (303.15 K) and 1.5092 ± 0.0024 in data set [2] (308.15 K).
`CCOC(=O)C(=O)OCC` [diethyl ethanedioate]: the mass density in data set [1] (298.15 K) turned out to be 1072.3 ± 2.2 kg/m3; in data set [1] (303.15 K), 1066.6 ± 2.3 kg/m3; in data set [1] (308.15 K) it was 1060.7 ± 2.4 kg/m3. Besides, in data set [1] (298.15 K), the speed of sound amounted to 1267 ± 7 m/s. Besides, the viscosity in data set [1] (298.15 K) amounted to 1.844 ± 0.056 mPa·s; in data set [1] (303.15 K) it was 1.659 ± 0.051 mPa·s; in data set [1] (308.15 K), 1.508 ± 0.046 mPa·s. Further, the refractive index in data set [2] (298.15 K) is on record as 1.4084 ± 0.0024; in data set [2] (303.15 K), 1.4061 ± 0.0024; in data set [2] (308.15 K) it was 1.4039 ± 0.0024.
Turning to `ClC(Cl)=C(Cl)Cl` [tetrachloroethene], the mass density in data set [1] (298.15 K) is 1614.7 ± 3.5 kg/m3; in data set [1] (303.15 K) it was 1606.9 ± 3.6 kg/m3; in data set [1] (308.15 K), 1599 ± 3.6 kg/m3. In addition, in data set [1] (298.15 K), the speed of sound stood at 1038 ± 6 m/s. The viscosity came out at 0.861 ± 0.028 mPa·s in data set [1] (298.15 K), 0.817 ± 0.027 mPa·s in data set [1] (303.15 K) and 0.782 ± 0.026 mPa·s in data set [1] (308.15 K). Further, the figures for the refractive index in data set [2] (298.15 K), in data set [2] (303.15 K) and in data set [2] (308.15 K) were 1.5036 ± 0.0024, 1.501 ± 0.0024 and 1.498 ± 0.0024, respectively.
As to `OCCCl` [1-chloro-2-hydroxyethane], the figures for the mass density in data set [1] (298.15 K), in data set [1] (303.15 K) and in data set [1] (308.15 K) were 1200.9 ± 2.5 kg/m3, 1192.5 ± 2.6 kg/m3 and 1187.1 ± 2.7 kg/m3, respectively. The speed of sound in data set [1] (298.15 K) was 1358 ± 8 m/s. Also, the viscosity stood at 3.104 ± 0.091 mPa·s in data set [1] (298.15 K), 2.669 ± 0.079 mPa·s in data set [1] (303.15 K) and 2.347 ± 0.07 mPa·s in data set [1] (308.15 K). Also, the refractive index in data set [2] (298.15 K) stood at 1.4411 ± 0.0024; in data set [2] (303.15 K) it was 1.438 ± 0.0024; in data set [2] (308.15 K), 1.4326 ± 0.0024.
Regarding `ClC(Cl)C(Cl)Cl` [1,1,2,2-tetrachloroethane], the figures for the mass density in data set [1] (298.15 K), in data set [1] (303.15 K) and in data set [1] (308.15 K) were 1587.8 ± 3.5 kg/m3, 1580.6 ± 3.6 kg/m3 and 1573.3 ± 3.6 kg/m3, respectively. Also, the speed of sound in data set [1] (298.15 K) is 1153 ± 7 m/s. In addition, the viscosity in data set [1] (298.15 K) was 1.591 ± 0.049 mPa·s; in data set [1] (303.15 K), 1.471 ± 0.045 mPa·s; in data set [1] (308.15 K) it was 1.361 ± 0.042 mPa·s. For the same compound, the results for the refractive index in data set [2] (298.15 K), in data set [2] (303.15 K) and in data set [2] (308.15 K) were 1.4922 ± 0.0024, 1.4894 ± 0.0024 and 1.4865 ± 0.0024, respectively.
With `C[S+](C)[O-]` [dimethyl sulfoxide], in data set [1] (298.15 K), the mass density came to 1095.4 ± 2.3 kg/m3, the speed of sound is 1493 ± 8 m/s and the viscosity amounted to 1.984 ± 0.06 mPa·s. Besides, in data set [1] (303.15 K), the mass density was 1090.8 ± 2.3 kg/m3 and the viscosity turned out to be 1.801 ± 0.055 mPa·s. In data set [1] (308.15 K), the mass density is 1086.2 ± 2.4 kg/m3 and the viscosity is reported as 1.651 ± 0.05 mPa·s. In addition, in data set [2] (298.15 K), the refractive index is 1.4768 ± 0.0064.
